What was measured:
[1] = tested on: RET/M918T, RET/A883F, and RET/V804L/M; assay: RET phosphorylation Western blot in RAT1 cells, other point mutants; assay type: cell-based; details: 2 h
Method: Fibroblasts transfected with RET/C634R were treated with increasing doses of NPA101.3, ranging from 0.1 to 10.0 nM. RET autophosphorylation was assessed by Western blotting using two different antibodies that can recognize phosphorylated Y905, located in the RET kinase activation loop, or Y1062, a multidocking site involved in RET downstream signaling.[41]
Figure 4 NPA101.3-mediated inhibition of phosphorylation and signaling of oncogenic RET mutants and VEGFR2 in intact cells. Serum-starved RAT1 cells exogenously expressing the (A and B) indicated RET point mutants or (C) NIH3T3 cells exogenously expressing the indicated RET rearranged mutants were treated for 2 h with the indicated concentrations of the compound. Total cell lysates (50 μg) were subjected to immunoblotting with anti-phospho-Y1062 (αp1062) and anti-phospho-Y905 (αp905) RET antibodies. The blots were normalized using the anti-RET (αRET) antibody. (D) HEK293 cells were transiently transfected with human VEGFR2; 36 h after transfection, cells were serum starved for 12 h. The indicated doses of the compound or vehicle (NT) were added for 2 h, and then VEGFA (100 ng/mL) stimulation was applied for 15 min. […]
Protein lysates were prepared according to standard procedures. […] Immune complexes were detected with the enhanced chemiluminescence kit (Amersham Pharmacia Biotech, Little Chalfont, U.K.). […]

[2] = tested on: TT (RET/C634W), MZ-CRC-1 (RET/M918T), TPC-1 (CCDC6-RET); assay: RET autophosphorylation and SHC/MAPK signalling in RET mutant human cancer cell lines; assay type: cell-based; details: 2 h treatment
Method: NPA101.3 inhibited RET autophosphorylation and signaling along the SHC/MAPK pathway in human cancer cell lines endogenously expressing RET oncogenic variants, including MTC cell lines, TT (RET/C634W) and MZ-CRC-1 (RET/M918T), and PTC cell line TPC-1 (CCDC6-RET); in the lung adenocarcinoma cell line Lc-2/ad (CCDC6-RET), only RET and SHC (but not MAPK) dephosphorylation was detectable (Figure S4).
Protein lysates were prepared according to standard procedures. Briefly, cells were lysed in a buffer containing 50 mM N-2-hydroxyethylpiperazine-N′-2-ethanesulfonic acid (HEPES; pH 7.5), 1% (v/v) Triton X-100, 150 mM NaCl, 5 mM EGTA, 50 mM NaF, 20 mM sodium pyrophosphate, 1 mM sodium vanadate, 2 mM phenylmethanesulfonyl fluoride (PMSF), and 1 μg/mL aprotinin. Lysates were clarified by centrifugation at 10000g for 15 min. […] Immune complexes were detected with the enhanced chemiluminescence kit (Amersham Pharmacia Biotech, Little Chalfont, U.K.). Anti-phospho-SHC (#Y317), which recognizes SHC protein when phosphorylated on Y317, was from Upstate Biotechnology Inc. (Lake Placid, NY). Anti-SHC (H-108) was from Santa Cruz Biotechnology (Santa Cruz, CA). Anti-MAPK (9101) and anti-phospho-MAPK (9102), specific for p42/44MAPK (ERK1/2) phosphorylated on Thr202/Tyr204, antibodies were from Cell Signaling Technologies (Danvers, MA). […]

Structure (SMILES): CC(C)(C)c1cc(NC(=O)Cc2ccc(-n3cnc4cc(-c5ccc(S(C)(=O)=O)cc5)ccc43)cc2)no1 [NPA101.3]
- phosphorylation of other MTC-associated RET oncogenic point mutants [1]: inhibited
- RET autophosphorylation and signaling along the SHC/MAPK pathway [2]: inhibited
